Reference: patent US6737383B1, “Herbicidal oxadiazolidines” (priority 1999, dated 2004)

What was measured:
rice = assay: Test B flood test rice; format: in vivo, Oryza sativa
In short: (§1)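 Plants were grown to the 2-leaf stage before treatment with test chemical, then held in a greenhouse for twelve to sixteen days. Injury was visually rated against untreated controls on a 0–10 scale, where 0 is no effect and 10 is complete control.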

giant foxtail = assay: Test B pre/postemergence giant foxtail; format: in vivo, Setaria faberii
In short: (§2)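 Test chemicals in a non-phytotoxic solvent mixture with surfactant were sprayed preemergence onto planted seeds and postemergence onto plants 2 to 18 cm tall (1- to 4-leaf stage). After twelve to sixteen days in a greenhouse, injury was visually rated against untreated controls from 0 (no effect) to 10 (complete control).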

velvetleaf = assay: Test B pre/postemergence velvetleaf; format: in vivo, Abutilon theophrasti
In short: as §2

rape = assay: Test B pre/postemergence rape; format: in vivo, Brassica napus
In short: as §2

cocklebur = assay: Test B pre/postemergence cocklebur; format: in vivo, Xanthium strumarium
In short: as §2

corn = assay: Test B pre/postemergence corn; format: in vivo, Zea mays
In short: as §2

purple nutsedge = assay: Test B pre/postemergence purple nutsedge; format: in vivo, Cyperus rotundus
In short: as §2

crabgrass = assay: Test B pre/postemergence crabgrass; format: in vivo, Digitaria sanguinalis
In short: as §2

wild oat = assay: Test B pre/postemergence wild oat; format: in vivo, Avena fatua
In short: as §2

pigweed = assay: Test B pre/postemergence pigweed; format: in vivo, Amaranthus retroflexus
In short: as §2

morningglory = assay: Test B pre/postemergence morningglory; format: in vivo, Ipomoea hederacea
In short: as §2

duck salad = assay: Test B flood test duck salad; format: in vivo, Heteranthera limosa
In short: as §1

soybean = assay: Test B pre/postemergence soybean; format: in vivo, Glycine max
In short: as §2

smallflower flatsedge = assay: Test B flood test smallflower flatsedge; format: in vivo, Cyperus difformis
In short: as §1

wheat = assay: Test B pre/postemergence wheat; format: in vivo, Triticum aestivum
In short: as §2

sugar beet = assay: Test B pre/postemergence sugar beet; format: in vivo, Beta vulgaris
In short: as §2

[1] = Rate 62 g/ha, headed Pre-emergence (flood test species), scale 0 to 10 (0 no effect, 10 complete control)
[2] = Rate 125 g/ha, Pre-emergence, flood test species, scale 0 to 10 where 0 is no effect and 10 is complete control
[3] = Rate 250 g/ha, Pre-emergence, flood-test species, scale 0 to 10, 0 is no effect, 10 is complete control
[4] = Rate 500 g/ha, Pre-emergence, flood test species, scale 0 to 10 (0 no effect, 10 complete control)
[5] = Preemergence, Rate 62 g/ha, scale of 0 to 10 where 0 is no effect and 10 is complete control
[6] = Preemergence, Rate 250 g/ha, scale of 0 to 10 where 0 is no effect and 10 is complete control
[7] = Preemergence, Rate 500 g/ha, scale of 0 to 10 where 0 is no effect and 10 is complete control
[8] = Rate 62 g/ha, Postemergence, scale 0 to 10, 0 no effect, 10 complete control
[9] = Rate 125 g/ha, Postemergence, scale of 0 to 10 where 0 is no effect and 10 is complete control
[10] = Rate 125 g/ha, Preemergence, scale of 0 to 10 where 0 is no effect and 10 is complete control
[11] = Rate 250 g/ha, Postemergence, scale of 0 to 10 where 0 is no effect and 10 is complete control
[12] = Rate 500 g/ha, Postemergence, scale 0 to 10, 0 no effect, 10 complete control

CCC=CCn1c(=O)on(C(=O)N(c2ccc(F)cc2)C(C)C)c1=O [Compound 286]
4: Wild oats plant response rating (wild oat; [6]) | Plant response rating, Sugarbeets (sugar beet; [7])
0: Rice plant response rating (rice; [1]) | Rice plant response rating (rice; [2]) | Rice plant response rating (rice; [3]) | Rice plant response rating (rice; [4]) | Giant foxtail plant response rating (giant foxtail; [8]) | Giant foxtail plant response rating (giant foxtail; [9]) | Velvetleaf plant response rating (velvetleaf; [5]) | Velvetleaf plant response rating (velvetleaf; [8]) | Velvetleaf plant response rating (velvetleaf; [9]) | Velvetleaf plant response rating (velvetleaf; [10]) | Plant response rating, Velvetleaf (velvetleaf; [11]) | Rape plant response rating (rape; [5]) | Rape plant response rating (rape; [8]) | Rape plant response rating (rape; [10]) | Cocklebur plant response rating (cocklebur; [5]) | Cocklebur plant response rating (cocklebur; [6]) | Plant response rating, Cocklebur (cocklebur; [7]) | Cocklebur plant response rating (cocklebur; [8]) | Cocklebur plant response rating (cocklebur; [9]) | Cocklebur plant response rating (cocklebur; [10]) | Plant response rating, Cocklebur (cocklebur; [11]) | Cocklebur plant response rating (cocklebur; [12]) | Corn plant response rating (corn; [5]) | Corn plant response rating (corn; [6]) | Plant response rating, Corn (corn; [7]) | Corn plant response rating (corn; [8]) | Corn plant response rating (corn; [9]) | Corn plant response rating (corn; [10]) | Plant response rating, Corn (corn; [11]) | Corn plant response rating (corn; [12]) | Nutsedge plant response rating (purple nutsedge; [5]) | Nutsedge plant response rating (purple nutsedge; [6]) | Nutsedge plant response rating (purple nutsedge; [8]) | Nutsedge plant response rating (purple nutsedge; [9]) | Nutsedge plant response rating (purple nutsedge; [10]) | Plant response rating, Nutsedge (purple nutsedge; [11]) | Crabgrass plant response rating (crabgrass; [5]) | Crabgrass plant response rating (crabgrass; [8]) | Crabgrass plant response rating (crabgrass; [9]) | Wild oats plant response rating (wild oat; [5]) | Wild oats plant response rating (wild oat; [8]) | Wild oats plant response rating (wild oat; [9]) | Redroot pigweed plant response rating (pigweed; [5]) | Redroot pigweed plant response rating (pigweed; [8]) | Redroot pigweed plant response rating (pigweed; [10]) | Morningglory plant response rating (morningglory; [5]) | Morningglory plant response rating (morningglory; [6]) | Plant response rating, Morningglory (morningglory; [7]) | Morningglory plant response rating (morningglory; [10]) | Ducksalad plant response rating (duck salad; [1]) | Ducksalad plant response rating (duck salad; [2]) | Ducksalad plant response rating (duck salad; [3]) | Ducksalad plant response rating (duck salad; [4]) | Soybean plant response rating (soybean; [5]) | Soybean plant response rating (soybean; [6]) | Plant response rating, Soybean (soybean; [7]) | Soybean plant response rating (soybean; [10]) | S. Flatsedge plant response rating (smallflower flatsedge; [1]) | S. Flatsedge plant response rating (smallflower flatsedge; [2]) | S. Flatsedge plant response rating (smallflower flatsedge; [3]) | S. Flatsedge plant response rating (smallflower flatsedge; [4]) | Wheat plant response rating (wheat; [5]) | Wheat plant response rating (wheat; [6]) | Wheat plant response rating (wheat; [8]) | Wheat plant response rating (wheat; [10]) | Sugarbeets plant response rating (sugar beet; [5]) | Sugarbeets plant response rating (sugar beet; [6]) | Sugarbeets plant response rating (sugar beet; [8]) | Sugarbeets plant response rating (sugar beet; [10])
10: Giant foxtail plant response rating (giant foxtail; [6]) | Plant response rating, Giant foxtail (giant foxtail; [7]) | Giant foxtail plant response rating (giant foxtail; [10]) | Crabgrass plant response rating (crabgrass; [6]) | Plant response rating, Crabgrass (crabgrass; [7]) | Plant response rating, Redroot pigweed (pigweed; [7])
8: Giant foxtail plant response rating (giant foxtail; [5]) | Plant response rating, Morningglory (morningglory; [11])
6: Plant response rating, Wild oats (wild oat; [7]) | Plant response rating, Redroot pigweed (pigweed; [11])
5: Plant response rating, Velvetleaf (velvetleaf; [7]) | Plant response rating, Rape (rape; [11])
1: Morningglory plant response rating (morningglory; [8]) | Soybean plant response rating (soybean; [8]) | Soybean plant response rating (soybean; [9])
3: Velvetleaf plant response rating (velvetleaf; [6]) | Rape plant response rating (rape; [6]) | Redroot pigweed plant response rating (pigweed; [9]) | Morningglory plant response rating (morningglory; [9]) | Wheat plant response rating (wheat; [9]) | Plant response rating, Wheat (wheat; [11])
7: Plant response rating, Rape (rape; [7])
2: Plant response rating, Giant foxtail (giant foxtail; [11]) | Rape plant response rating (rape; [9]) | Crabgrass plant response rating (crabgrass; [10]) | Plant response rating, Crabgrass (crabgrass; [11]) | Plant response rating, Wild oats (wild oat; [11]) | Redroot pigweed plant response rating (pigweed; [6]) | Plant response rating, Soybean (soybean; [11]) | Plant response rating, Wheat (wheat; [7]) | Sugarbeets plant response rating (sugar beet; [9]) | Plant response rating, Sugarbeets (sugar beet; [11])
